Measurements published in patent US20090075976A1, “Association between an anti-atherothrombotic and an angiotensin-converting enzyme inhibitor” (LES LABORATOIRES SERVIER, priority 2007, published 2009).
Where a name gives a salt, the structure may show the parent alone.

Legend:
VCAM-1 = conditions: diabetic atheromatous Apo E−/− mice; cited from earlier work
CD rats [1] = test: Arterial pressure in the anaesthetised rat; assay type: in vivo; conditions: recorded 1 hour after treatment, controls 131±7 mmHg
Procedure: After anaesthesia using pentobarbital (50 mg/kg IP), the animal is placed on a thermostatically controlled blanket. The carotid artery is exposed and a catheter is introduced in order to monitor the arterial pressure with the aid of a Gould sensor connected to AcqKnowledge software. […] Some animals are treated with terutroban (compound A) in the form of the sodium salt at a dose of 0.1 mg/kg, others with perindopril (compound B) in the form of the tert-butylamine salt at a dose of 0.3 mg/kg, and others with terutroban (compound A) in the form of the sodium salt at 0.1 mg/kg and perindopril (compound B) in the form of the tert-butylamine salt at 0.3 mg/kg.

CD rats [2] = test: Arterial thrombosis in the rat (FeCl3-induced, aorta); assay type: in vivo
Procedure: The thrombosis technique used is that of Tanaka and co-workers (Eur. J. Pharmacol., 2008; 401, 413-18). CD rats (350-375 g) are anaesthetised using pentobarbital 50 mg/kg IP and are placed on a thermostatically controlled blanket. After laparotomy, the aorta is exposed. […] Some animals are treated with terutroban (compound A) in the form of the sodium salt at a dose of 0.1 mg/kg, others with perindopril (compound B) in the form of the tert-butylamine salt at a dose of 1 mg/kg, and others with terutroban in the form of the sodium salt (compound A) at a dose of 0.1 mg/kg and perindopril (compound B) in the form of the tert-butylamine salt at 1 mg/kg.

renal fibronectin = test: Expression of renal fibronectin in diabetic ApoE−/− mice (real-time PCR); assay type: in vivo; conditions: 6 weeks
Procedure: (§1) Four groups of 9 mice deficient in apolipoprotein E (ApoE^−/−, spontaneously developing atheroma plaques in their aortas) were used in this study. At the age of 8 weeks, the mice are made diabetic by 5 intraperitoneal injections of 70 mg/kg of streptozotocin over 5 days. At the ninth week, the animals are divided into four groups: an untreated control group, a group treated with terutroban (compound A) sodium salt (1 mg/kg/day in the food), a group treated with perindopril (compound B) tert-butylamine salt (0.1 mg/kg/day in the drinking water), and a group treated with the association of terutroban (compound A) sodium salt (1 mg/kg/day in the food) and perindopril (compound B) tert-butylamine salt (0.1 mg/kg/day in the drinking water). For the expression of renal fibronectin, the mice are treated for 6 weeks and then sacrificed after anaesthesia using isoflurane. For the expression of aortic VCAM-1, the mice are treated for 13 weeks and then sacrificed. The aortas and the right-side kidneys are removed, dissected and frozen in liquid nitrogen. […] Expression of aortic VCAM-1 and expression of renal fibronectin are quantified by real-time PCR and normalised with respect to 3 reference genes: β-actin, hypoxanthine-guanine phosphoribosyl transferase (HPRT) and glyceraldehyde phosphate dehydrogenase (GAPDH). […]

aortic VCAM-1 = test: Expression of aortic VCAM-1 in diabetic ApoE−/− mice (real-time PCR); assay type: in vivo; conditions: 13 weeks
Procedure: as §1, with “of” for “of renal fibronectin, the mice are treated for 6 weeks and then sacrificed after anaesthesia using isoflurane. For the expression of”, “nitrogen. The tissues are cryo-ground and total RNA is extracted using the RNeasy® micro kit (Qiagen).” for “nitrogen.”

[3] = test system: human E-selectin promoter; test: E-selectin promoter activity (luciferase reporter) in TNF-α-induced HUVEC cells; assay type: cell-based; conditions: for Activity in cpm %/Control MEAN ± SDM: TNF-α-induced (100 U/ml); for effect on expression of the E-selectin gene: compound alone, at the concentrations tested (up to 100 μM), TNF-α
Procedure: The study is carried out on human endothelial cells HUVEC (Human Umbilical Vein Endothelial Cells, Clonetics Co). The cells are cultured in an EBM2 medium (Endothelial Basal Medium, Clonetics Co) supplemented with 2% FCS (Fœtal Calf Serum) and EGM2 (Endothelial Growth Medium, Clonetics Co).
An 850 bp fragment, corresponding to the human E-selectin promoter, extending from the nucleotides at positions −800 to +50 (accession no. M64485; Tamaru et al., E-selectin gene expression is induced synergistically with the coexistence of activated classic protein kinase C and signals elicited by interleukin-1β but not tumor necrosis factor-α; 1999, J. Biol. Chem, 274, 3753-3763), was amplified by PCR and sub-cloned. In a final reaction volume of 100 μl, 5 units of native Pyrococcus furiosus (Pfu) DNA polymerase (Stratagene) were placed in the presence of 1 μg of human genomic DNA (Clontech), 200 μM of dNTP (deoxynucleotide triphosphate) (Clontech) and 200 ng of primers in a medium containing the buffer specific to the enzyme. The set of primers used is as follows: […]
The PGL3/E-selectin plasmid is transfected into HUVEC cells before the fourth passage. Transfection is carried out in plates having cells at 50% confluence, depositing Lipofectin® (Invitrogen) and 3 μg of PGL3/E-selectin plasmid in each of the wells. The Lipofectin® (6 μg/ml) is previously activated for 30 minutes in an OPTI-MEM medium (GIBCO™) and then brought into contact for 15 minutes with the plasmids previously diluted with the medium. The cells are incubated for 4 hours at 37° C. in an atmosphere containing 5% CO2 and […]. The transfection medium is withdrawn and replaced overnight by an enriched culture medium in order to stabilise the cells.
Expression of the reporter genes is induced over 4 hours in an M199 medium without serum (GIBCO™). The cells are scratched and lysed in a lysis buffer (Dual-Luciferase® kit, Promega) and then held at −20° C.
The induction phase is 4 hours for the HUVEC cells in the presence of 100 U/ml of Tumour Necrosis Factor-α (TNF-α). During that induction phase, there are added different concentrations of, on the one hand: • perindoprilate (0 to 100 µM), terutroban sodium salt (0 to 100 μM), or terutroban sodium salt (30 μM)+different concentrations of perindoprilate (10, 30 and 100 μM) (Table 1) and, on the other hand: • ramiprilate (0 to 100 μM), terutroban sodium salt (0 to 100 μM), or terutroban sodium salt (10 μM)+different concentrations of ramiprilate (30 and 100 μM) (Table 2).
The E-selectin promoter activity is determined by quantification of the luciferase activity produced (Dual-Luciferase® kit, Promega). A solution of luciferin, the substrate of the firefly luciferase, is added to each well. […] The plate is incubated for 10 minutes in the dark because the luciferase activity is light-sensitive, and then a luminometer reading is started in order to quantify the photons emitted (Wallac, Perkin Elmer), the result obtained being the average cpm (counts per minute) over a period of 5 seconds.
(§2) The activity of the E-selectin promoter is measured under control conditions and in the presence of products in the induced state.
as §2

[4] = 0.1 mg/kg/day in the drinking water

SMILES | endothelial expression of the adhesion molecule VCAM-1 (VCAM-1) | arterial pressure (CD rats [1]; 0.1 mg/kg) [mmHg] | weight of clot (CD rats [2]; 0.1 mg/kg, controls 17.1±1.3 mg) [mg] | expression of the renal fibronectin gene versus 100% without treatment (renal fibronectin; 1 mg/kg/day in the food) [%] | residual expression of the aortic VCAM-1 gene versus 100% without treatment (aortic VCAM-1; 1 mg/kg/day in the food) [%] | Activity in cpm %/Control MEAN ± SDM ([3]; compound alone 10 μM) [%] | Activity in cpm %/Control MEAN ± SDM ([3]; compound alone 30 μM) [%] | Activity in cpm %/Control MEAN ± SDM ([3]; compound alone 100 μM) [%] | effect on expression of the E-selectin gene [3] | arterial pressure (CD rats [1]; 0.3 mg/kg) [mmHg] | weight of clot (CD rats [2]; 1 mg/kg, controls 15.6±0.7 mg) [mg] | expression of the renal fibronectin gene versus 100% without treatment (renal fibronectin; [4]) [%] | residual expression of the aortic VCAM-1 gene versus 100% without treatment (aortic VCAM-1; [4]) [%]
Cc1ccc2c(c1CCC(=O)O)CC[C@@H](NS(=O)(=O)c1ccc(Cl)cc1)C2 [Compound A, sodium salt, 3-[(6R)-6-[[(4-chlorophenyl)sulphonyl]amino]-2-methyl-5,6,7,8-tetrahydronaphth-1-yl]propanoic acid] | significantly reduced | 126±7 | 16.8 ± 1.3 | 69±16 | 88±22 | 105.8 ± 7.9 | 99.5 ± 9.1 | 88.8 ± 8.9 | no effect |  |  |  | 
CCC[C@H](N[C@@H](C)C(=O)N1[C@H](C(=O)O)C[C@@H]2CCCC[C@@H]21)C(=O)O [Compound B, active metabolite, perindoprilate] |  |  |  |  |  | 99.5 ± 7.8 | 100.3 ± 9.2 | 82.8 ± 11.5 | no effect |  |  |  | 
C[C@H](N[C@@H](CCc1ccccc1)C(=O)O)C(=O)N1[C@H](C(=O)O)C[C@@H]2CCC[C@@H]21 [Compound C, active metabolite, ramiprilate] |  |  |  |  |  |  | 111.1 ± 17.2 | 114.6 ± 38.9 | no effect |  |  |  | 
CCC[C@H](N[C@@H](C)C(=O)N1[C@H](C(=O)O)C[C@@H]2CCCC[C@@H]21)C(=O)OCC [perindopril] |  |  |  |  |  |  |  |  |  | 120±9 | 15.2 ± 1.1 | 86±9.9 | 76±21
